# According to PubChem BioAssay (NCI):
#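 1) Cells in 96-well plates. 2) Compound, 48 h, 5 concentrations. 3) Linear interpolation between surrounding doses. 4) Unreached endpoint = highest concentration. The concentration for full growth arrest is given as TGI.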
# How the values were obtained:
# Experiment in all cases: DTP human tumour cell line panel, 48 h
# 786-0 renal = system: 786-0 renal
# ACHN renal = system: ACHN renal
# HCT-116 colon = system: HCT-116 colon
# HOP-62 NSCLC = system: HOP-62 NSCLC
# HT29 colon = system: HT29 colon
# K-562 leukemia = system: K-562 leukemia
# MALME-3M melanoma = system: MALME-3M melanoma
# MDA-MB-435 = system: MDA-MB-435
# MOLT-4 leukemia = system: MOLT-4 leukemia
# NCI-H522 lung = system: NCI-H522 lung
# OVCAR-5 ovarian = system: OVCAR-5 ovarian
# SF-268 CNS = system: SF-268 CNS
# TK-10 renal = system: TK-10 renal
# UACC-62 melanoma = system: UACC-62 melanoma
# MDA-N = system: MDA-N
Compound,TGI (786-0 renal) [µM],TGI (ACHN renal) [µM],TGI (HCT-116 colon) [µM],TGI (HOP-62 NSCLC) [µM],TGI (HT29 colon) [µM],TGI (K-562 leukemia) [µM],TGI (MALME-3M melanoma) [µM],TGI (MDA-MB-435) [µM],TGI (MOLT-4 leukemia) [µM],TGI (NCI-H522 lung) [µM],TGI (OVCAR-5 ovarian) [µM],TGI (SF-268 CNS) [µM],TGI (TK-10 renal) [µM],TGI (UACC-62 melanoma) [µM],TGI (MDA-N) [µM]
CN(C)CCNC(=O)c1cccc2nc3c(C(=O)NCCN(C)C)cccc3nc12,9.88,22.3,13.4,5.12,3.49,12.5,3.59,2.59,14.7,1.81,13.6,4.84,6.81,9.6,
Cc1ccc(-c2cc[n+]3c(n2)oc2ccccc23)cc1,29.5,99.4,> 100,,,22.5,29.1,57.6,31.3,20,> 100,> 100,,97.7,> 100
O=C(C/C(=N/O)C(F)(F)F)c1cccs1,> 100,> 100,> 100,> 100,> 100,> 100,,> 100,> 100,,> 100,> 100,> 100,> 100,> 100
CCCCCCCCCCCCCCCCCCNC(=S)/N=C/c1c(O)c2ccccc2[nH]c1=O,29.8,30.9,30.4,33,30.9,,,42.3,29.7,,31.2,29.5,56.1,,35.3
Cc1cc2c(cc1C)C(=O)C1(C2)Cc2cc3c(cc2C1=O)CCC3 (stereo unspecified),> 100,> 100,> 100,,> 100,> 100,> 100,> 100,> 100,> 100,> 100,> 100,> 100,> 100,> 100
CC1(C)OC(=O)C(C#N)=C1C[n+]1ccccc1,> 10,> 10,,> 10,> 10,> 10,> 10,> 10,> 10,> 10,> 10,> 10,> 10,,> 10
CCOC(=O)C(=CNC(=S)N=Nc1c(O)[nH]c2ccccc12)C(=O)OCC,> 100,> 100,> 100,> 100,> 100,> 100,,> 100,> 100,,> 100,> 100,> 100,> 100,> 100
CCOC(=O)[C@@]1(C)CC(O)C(=O)N1C (stereo partly specified),> 100,> 100,> 100,> 100,> 100,,> 100,> 100,> 100,> 100,> 100,> 100,> 100,> 100,
O[C@@H]1CCC[C@@H]2NC[C@@H](c3ccc4c(c3)OCO4)[C@H]12,> 100,> 100,,> 100,> 100,> 100,> 100,> 100,> 100,> 100,> 100,> 100,> 100,> 100,> 100
CCN(CC)c1ccc(/C=C2\CCc3ccc([N+](=O)[O-])cc3C2=O)cc1,> 100,> 100,> 100,,2.21,> 100,> 100,0.744,> 100,> 100,> 100,> 100,> 100,> 100,0.523
COc1c(Br)cc2ccccc2c1-c1c(OC)c(Br)cc2ccccc12,> 100,> 100,,> 100,> 100,> 100,,> 100,> 100,> 100,> 100,> 100,> 100,> 100,> 100
O=c1[nH]nc(Nc2ccccc2)c2nnn(C3CCCCC3)c12,> 100,> 100,> 100,> 100,> 100,> 100,> 100,> 100,> 100,,> 100,,> 100,,> 100
C=CCN1/C(=C2\SC(=S)N(c3ccc(C)cc3)C2=O)Sc2c1ncn(C)c2=O,> 100,> 100,> 100,> 100,> 100,> 100,,,> 100,> 100,> 100,> 100,> 100,> 100,
N#Cc1cc(Sc2ccc(N)c(C#N)c2)ccc1N,43.3,> 100,34.4,> 100,30.9,60.2,36.4,12.6,> 100,,> 100,59,> 100,> 100,24.2
O=C(N/N=C\c1cccc2ccccc12)Nc1cccc2ccccc12,28.1,> 100,72,23.1,> 100,15.6,> 100,24.3,,> 100,> 100,> 100,56.5,,21.2
NC(=O)CC(N)C(=O)NC(Cc1ccccc1)C(=O)NC(Cc1ccccc1)NC(=O)C(Cc1c[nH]c2ccccc12)C(=O)O (stereo unspecified),> 100,> 100,> 100,> 100,> 100,> 100,> 100,> 100,> 100,> 100,> 100,> 100,> 100,> 100,
C=CC(=O)N1C/C(=C\c2ccc([N+](=O)[O-])cc2)C(=O)/C(=C/c2ccc([N+](=O)[O-])cc2)C1,0.249,0.33,0.115,0.375,< 0.038,,0.643,1.36,,,1.18,0.338,2.09,0.688,0.856
